Data as given in publication PMC6084781 (Cancer letters, 2018).

Assays:
[1] = target: ABCB1 (Homo sapiens, UniProt P08183); assay: vanadate-sensitive ATPase stimulation in membrane vesicles; assay type: biochemical
[2] = target: T1, ABCG2 (Homo sapiens, UniProt Q9UNQ0); assay: as above; assay type: biochemical
T1 sequence (Q9UNQ0 1-655): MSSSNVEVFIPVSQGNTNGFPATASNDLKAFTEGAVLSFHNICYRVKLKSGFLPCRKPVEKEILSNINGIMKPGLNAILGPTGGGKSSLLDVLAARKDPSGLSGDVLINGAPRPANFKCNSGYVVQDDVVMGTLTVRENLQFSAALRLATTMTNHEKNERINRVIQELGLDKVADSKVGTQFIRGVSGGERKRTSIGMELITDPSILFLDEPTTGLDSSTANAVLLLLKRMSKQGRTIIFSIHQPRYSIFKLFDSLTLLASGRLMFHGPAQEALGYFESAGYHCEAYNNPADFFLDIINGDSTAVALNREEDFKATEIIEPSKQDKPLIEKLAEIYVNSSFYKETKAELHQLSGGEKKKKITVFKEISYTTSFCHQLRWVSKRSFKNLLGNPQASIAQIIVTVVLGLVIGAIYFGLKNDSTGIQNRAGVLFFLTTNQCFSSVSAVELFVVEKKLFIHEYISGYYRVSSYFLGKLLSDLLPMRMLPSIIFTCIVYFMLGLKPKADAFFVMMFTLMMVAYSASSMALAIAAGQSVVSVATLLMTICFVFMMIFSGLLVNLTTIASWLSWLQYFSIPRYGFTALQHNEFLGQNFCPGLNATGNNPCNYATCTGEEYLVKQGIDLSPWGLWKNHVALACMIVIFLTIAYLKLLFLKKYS

ABCB1, sequence (P08183 whole entry): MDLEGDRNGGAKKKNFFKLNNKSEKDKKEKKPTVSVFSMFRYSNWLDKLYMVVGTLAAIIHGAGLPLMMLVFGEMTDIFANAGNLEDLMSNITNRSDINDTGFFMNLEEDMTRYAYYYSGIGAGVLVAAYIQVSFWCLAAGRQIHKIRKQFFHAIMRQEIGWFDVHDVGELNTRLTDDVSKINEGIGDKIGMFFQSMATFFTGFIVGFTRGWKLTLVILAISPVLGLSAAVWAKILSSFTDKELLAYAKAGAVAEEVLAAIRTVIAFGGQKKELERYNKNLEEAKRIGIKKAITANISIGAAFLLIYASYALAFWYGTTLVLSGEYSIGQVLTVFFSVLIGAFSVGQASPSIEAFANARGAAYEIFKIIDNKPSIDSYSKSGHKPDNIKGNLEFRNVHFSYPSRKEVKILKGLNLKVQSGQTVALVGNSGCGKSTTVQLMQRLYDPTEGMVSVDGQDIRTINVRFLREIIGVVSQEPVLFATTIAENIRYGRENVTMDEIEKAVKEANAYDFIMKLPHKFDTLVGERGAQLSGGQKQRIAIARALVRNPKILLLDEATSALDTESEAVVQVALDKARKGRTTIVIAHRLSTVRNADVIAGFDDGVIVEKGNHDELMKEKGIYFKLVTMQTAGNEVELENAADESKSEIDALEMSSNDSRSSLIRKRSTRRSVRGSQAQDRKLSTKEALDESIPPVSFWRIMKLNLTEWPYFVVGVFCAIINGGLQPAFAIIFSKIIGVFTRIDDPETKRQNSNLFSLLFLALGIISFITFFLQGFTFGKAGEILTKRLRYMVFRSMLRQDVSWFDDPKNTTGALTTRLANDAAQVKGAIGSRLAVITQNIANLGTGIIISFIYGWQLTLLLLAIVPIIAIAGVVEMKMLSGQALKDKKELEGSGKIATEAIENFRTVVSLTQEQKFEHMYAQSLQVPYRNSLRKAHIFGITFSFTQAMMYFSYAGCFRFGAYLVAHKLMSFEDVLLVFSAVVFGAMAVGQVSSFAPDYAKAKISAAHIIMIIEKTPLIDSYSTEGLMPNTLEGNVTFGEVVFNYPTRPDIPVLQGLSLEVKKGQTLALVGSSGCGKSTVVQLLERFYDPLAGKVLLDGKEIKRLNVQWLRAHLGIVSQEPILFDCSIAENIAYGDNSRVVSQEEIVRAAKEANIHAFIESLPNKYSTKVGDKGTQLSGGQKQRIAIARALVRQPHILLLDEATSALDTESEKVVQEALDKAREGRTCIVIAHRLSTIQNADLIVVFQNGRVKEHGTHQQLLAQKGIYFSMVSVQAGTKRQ

## COc1cc2c(cc1OC)CN(C(=O)/C=C/c1c(-c3ccccc3)n(C)c3ncccc13)CC2 [SIS3]
[1]
  EC50: ~160 nM
[2]
  EC50: ~60 nM
